Source: patent US10238623B2, “C14-hydroxyl esterified amino acid derivative of triptolide, and preparation method and use thereof” (HANGZHOU WEBEN PHARMACEUTICALS INC, priority 2015, dated 2019)

Key:
L615 leukemia = details: mouse, in vivo; cited from earlier work
CEM = experiment: MTT growth inhibition, CEM cells, 72 h; assay type: cell-based, human
Protocol: (§1) 5000 well-grown leukemia cells or normal human blood cells were taken and seeded into wells of a 96-well cell culture plate. The medium was 1640 cell medium containing 10% fetal bovine serum. 14-D-Valine-TPL with different concentrations was added, and after being uniformly mixed, the plate was placed in a carbon dioxide (5% CO2) cell incubator, and incubated at 37° C. for 72 hours. The concentration of live cells was then determined using the MTT assay. In this experiment, the cell viability in the control group (without the compound treatment) was set to be 100%, and the cell viability (%) after the action of the compound the half maximal growth inhibitory concentration of leukemia cells at 72 hours (IC50 value at 72 hours) and the therapeutic window index were calculated. Therapeutic window index=IC50 value of normal blood cells/IC50 value of leukemia cells. […] A larger therapeutic window indicates a better selectivity of the compound for tumor cells.
(§2) 5000 well-grown leukemia cells were taken and seeded into wells of a 96-well cell culture plate. The medium was 1640 cell medium containing 10% fetal bovine serum. 14-D-Valine-TPL with different concentrations was added, and after being uniformly mixed, the plate was placed in a carbon dioxide (5% CO2) cell incubator, and incubated at 37° C. for 72 hours. The concentration of live cells was then determined using the MTT assay. In this experiment, the cell viability in the control group (without the compound treatment) was set to be 100%, and the cell viability (%) after the action of the compound and the half maximal growth inhibitory concentration of leukemia cells at 72 hours (IC50 value at 72 hours) were calculated.
as §2, with “well-grown lymphocytes” for “well-grown leukemia cells”

Sup-B15 = experiment: MTT growth inhibition, Sup-B15 cells, 72 h; assay type: cell-based, human
Protocol: as §1, §2
as §2, with “well-grown lymphocytes” for “well-grown leukemia cells”

Molt-4 = experiment: MTT growth inhibition, Molt-4 cells, 72 h; assay type: cell-based, human; details: for Therapeutic window: IC50 of normal blood cells/IC50 of Molt-4
Protocol: as §1, §2
as §2, with “well-grown lymphocytes” for “well-grown leukemia cells”

human leukemia = human leukemia (18/45); cited from earlier work
Jurkat = experiment: MTT growth inhibition, Jurkat cells, 72 h; assay type: cell-based, human
Protocol: as §1, §2
as §2, with “well-grown lymphocytes” for “well-grown leukemia cells”

normal human blood cells = experiment: MTT assay, normal human blood cells, 72 h; assay type: cell-based; details: Homo sapiens, 72 h, Normal Blood Cell, Overall, MTT, read-out: IC50
Protocol: Leukemia cell strains: Sup-B15 (Ph+acute lymphoblastic leukemia), CEM (acute lymphoblastic leukemia, ALL), and Molt-4 (acute lymphoblastic leukemia, ALL). Normal blood cell samples: peripheral blood from healthy volunteers. • Primary reagent: 14-D-Valine-TPL of the invention. Primary instruments: cell incubator and microplate reader. (2) Experimental Method
as §1

[1] = oral and intravenous injection; cited from earlier work

Q: Which “survival time of L615 leukemia mice” value (L615 leukemia) does the source give for `CC(C)[C@]12O[C@H]1[C@@H]1O[C@]13[C@]1(O[C@H]1C[C@H]1C4=C(CC[C@@]13C)C(=O)OC4)[C@@H]2O` [TPL, Triptolide] here?
A: Its value is “significantly prolong the survival time”.

Q: What about the IC50 (CEM; Homo sapiens, CCRF-CEM, CEM, MTT, 72 hours, read-out: IC50) of the same compound?
A: The IC50 was 23.3 nM.

Q: And the Therapeutic window (CEM; IC50 of normal blood cells/IC50 of CEM)?
A: Its Therapeutic window is 0.93.

Q: What about the IC50 (Sup-B15; Homo sapiens, Sup-B15, MTT, 72 hours, read-out: IC50) of the same compound?
A: The IC50 was 23.2 nM.

Q: What about the Therapeutic window (Sup-B15; IC50 of normal blood cells/IC50 of Sup-B15) of the same compound?
A: Its Therapeutic window is 0.94.

Q: What about the IC50 (Molt-4; Homo sapiens, Molt-4, MTT, 72 hours, read-out: IC50) of the same compound?
A: Its IC50 is 10.7 nM.

Q: What about the Therapeutic window (Molt-4) of the same compound?
A: Its Therapeutic window is 2.03.

Q: And the Therapeutic window (Molt-4; listed as triptolide)?
A: Its Therapeutic window is 2.0.

Q: And the complete remission rate (human leukemia)?
A: Its complete remission rate is “up to 40%”.

Q: What about the IC50 (Jurkat; Homo sapiens, Jurkat, MTT, 72 hours, read-out: IC50) of the same compound?
A: Its IC50 is 33.8 nM.

Q: What about the Therapeutic window (Jurkat; IC50 of normal blood cells/IC50 of Jurkat) of the same compound?
A: The Therapeutic window was 0.64.

Q: What about the IC50 (normal human blood cells) of the same compound?
A: The IC50 was 21.7 nM.

Q: What about the “elimination half-life (in words)” value [1] of the same compound?
A: Its value is “short elimination half-life”.
